Cc1c(C(=O)c2c[nH]n(C)c2=O)ccc(S(C)(=O)=O)c1C1=NOCC1
solubility (mole fraction)
Settings | 283.15 K | 288.15 K | 293.15 K | 298.15 K | 303.15 K | 308.15 K | 313.15 K | 318.15 K | 323.15 K
in THF | 0.00274 | 0.0031 | 0.00351 | 0.00397 | 0.00449 | 0.00509 | 0.00576 | 0.00652 | 0.00738
in acetone | 0.00112 | 0.0013 | 0.00151 | 0.00176 | 0.00204 | 0.00236 | 0.00274 | 0.00318 | 0.0037
in acetonitrile | 0.000648 | 0.000778 | 0.000934 | 0.00112 | 0.00134 | 0.00161 | 0.00194 | 0.00232 | 0.00279
in ethanol | 6.16e-05 | 8.08e-05 | 0.000106 | 0.000139 | 0.000182 | 0.000239 | 0.000314 | 0.000412 | 0.000541
in ethyl acetate | 0.000521 | 0.000624 | 0.000747 | 0.000894 | 0.00107 | 0.00128 | 0.00153 | 0.00183 | 0.0022
in isobutanol | 4.16e-05 | 5.6e-05 | 7.53e-05 | 0.000101 | 0.000137 | 0.000184 | 0.000247 | 0.000333 | 0.000449
in isobutyl acetate | 0.000421 | 0.000481 | 0.000549 | 0.000627 | 0.000716 | 0.000818 | 0.000934 | 0.00107 | 0.00122
in isopropanol | 3.8e-05 | 5.11e-05 | 6.87e-05 | 9.23e-05 | 0.000124 | 0.000167 | 0.000224 | 0.000302 | 0.000405
in isopropyl acetate | 0.000297 | 0.000353 | 0.00042 | 0.000499 | 0.000594 | 0.000706 | 0.000839 | 0.000997 | 0.00119
in methanol | 0.000139 | 0.000173 | 0.000215 | 0.000267 | 0.000333 | 0.000414 | 0.000516 | 0.000642 | 0.000799
in methyl acetate | 0.000989 | 0.00116 | 0.00135 | 0.00157 | 0.00184 | 0.00215 | 0.00251 | 0.00293 | 0.00342
in n-butanol | 6.22e-05 | 8.09e-05 | 0.000105 | 0.000137 | 0.000178 | 0.000232 | 0.000301 | 0.000392 | 0.00051
in n-butyl acetate | 0.000355 | 0.000419 | 0.000495 | 0.000584 | 0.00069 | 0.000815 | 0.000962 | 0.00114 | 0.00134
in n-propanol | 5.61e-05 | 7.35e-05 | 9.63e-05 | 0.000126 | 0.000165 | 0.000217 | 0.000284 | 0.000372 | 0.000488
in n-propyl acetate | 0.000415 | 0.000496 | 0.000594 | 0.00071 | 0.000849 | 0.00101 | 0.00121 | 0.00145 | 0.00173
in toluene | 0.000256 | 0.0003 | 0.00035 | 0.00041 | 0.000479 | 0.00056 | 0.000655 | 0.000766 | 0.000895

Reference: BigSolDB 2.1
